{
  "source": "patent US20200341000A1",
  "about": "“METHOD OF SCREENING COMPOUNDS FOR TREATING CNS DISORDERS” (SAGE THERAPEUTICS, INC., priority 2017, published 2020)",
  "key": {"[1]": {"tested_on": "GABA receptor trafficking", "assay": "GABA receptor trafficking measured by GABAergic current density (FIG. 14)", "type": "cell-based", "conditions": "measured by the GABAergic current density", "description": "As shown in above examples, not all neurosteroids can modulate GABA receptor trafficking."}, "[2]": {"tested_on": "tonic current in dentate gyms granule cells (DGGCs)", "conditions": "Abramian et al., 2010, 2014; cited from earlier work"}, "α1β2γ2 GABAA receptors": {"target": "T1, α1β2γ2 GABAA receptors (Homo sapiens, UniProt P14867+P18507+P47870)", "T1 construct": "expressed in transfected cells", "T1 sequence (P14867 28-456)": "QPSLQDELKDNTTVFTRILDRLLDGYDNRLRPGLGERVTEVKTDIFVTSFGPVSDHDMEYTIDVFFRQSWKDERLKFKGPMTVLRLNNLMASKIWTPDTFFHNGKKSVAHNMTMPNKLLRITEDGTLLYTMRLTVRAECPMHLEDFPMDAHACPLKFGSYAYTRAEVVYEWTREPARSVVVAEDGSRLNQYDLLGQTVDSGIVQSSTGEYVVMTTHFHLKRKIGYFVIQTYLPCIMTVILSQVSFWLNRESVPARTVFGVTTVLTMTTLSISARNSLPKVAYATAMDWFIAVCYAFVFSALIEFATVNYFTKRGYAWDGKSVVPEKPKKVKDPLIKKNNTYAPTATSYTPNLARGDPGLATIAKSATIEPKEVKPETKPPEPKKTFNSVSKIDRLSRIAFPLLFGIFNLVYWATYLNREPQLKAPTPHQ", "T1 sequence (P47870 25-512 limits assumed)": "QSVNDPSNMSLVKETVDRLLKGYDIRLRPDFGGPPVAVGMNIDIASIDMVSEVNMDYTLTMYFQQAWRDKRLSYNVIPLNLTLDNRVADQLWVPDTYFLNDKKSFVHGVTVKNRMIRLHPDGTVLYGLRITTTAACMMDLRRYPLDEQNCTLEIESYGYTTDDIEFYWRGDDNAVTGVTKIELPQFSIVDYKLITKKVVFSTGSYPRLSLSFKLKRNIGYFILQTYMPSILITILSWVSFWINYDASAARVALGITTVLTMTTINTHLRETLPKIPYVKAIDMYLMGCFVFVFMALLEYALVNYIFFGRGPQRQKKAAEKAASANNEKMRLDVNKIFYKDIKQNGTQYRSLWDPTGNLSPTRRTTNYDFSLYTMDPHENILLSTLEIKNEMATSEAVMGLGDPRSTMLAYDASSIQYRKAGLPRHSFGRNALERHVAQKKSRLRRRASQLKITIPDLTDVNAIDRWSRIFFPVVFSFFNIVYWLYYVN", "T1 sequence (P18507 40-475)": "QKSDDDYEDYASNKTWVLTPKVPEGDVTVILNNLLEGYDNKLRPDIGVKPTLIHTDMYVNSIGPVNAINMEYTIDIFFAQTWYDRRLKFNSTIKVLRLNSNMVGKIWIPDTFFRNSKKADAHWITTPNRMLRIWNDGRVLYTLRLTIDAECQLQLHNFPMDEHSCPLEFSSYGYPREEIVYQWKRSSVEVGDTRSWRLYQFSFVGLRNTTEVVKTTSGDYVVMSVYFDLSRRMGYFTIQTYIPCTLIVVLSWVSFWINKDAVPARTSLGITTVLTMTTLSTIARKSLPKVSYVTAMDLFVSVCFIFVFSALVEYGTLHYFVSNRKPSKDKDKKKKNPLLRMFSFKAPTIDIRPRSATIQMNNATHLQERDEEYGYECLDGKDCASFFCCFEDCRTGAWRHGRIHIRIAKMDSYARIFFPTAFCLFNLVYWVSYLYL", "assay": "Whole-cell patch clamp, potentiation of GABA EC20 currents at recombinant synaptic-type receptors (LTK cells)", "type": "cell-based", "conditions": "LTK, relative percentage potentiation of GABA EC20 peak current; n = 3; read-out: Emax ± S.E.M., α1β2γ2", "description": "(§1) Cellular electrophysiology was used to measure the pharmacological properties of ALLO, ganaxolone and SGE-516 in heterologous cell systems. Compounds were tested for their ability to affect GABA mediated currents at a submaximal agonist dose (GABA EC20=2 μM).\n(§2) LTK cells were stably transfected with the α1β2γ2 subunits of the GABA receptor and CHO cells are transiently transfected with the α4β3γ subunits via the Lipofecatamine method. Cells were passaged at a confluence of about 50-80% and then seeded onto 35 mm sterile culture dishes containing 2 ml culture complete medium without antibiotics or antimycotics. Cells were cultivated at a density that enabled the recording of single cells without visible connections to other cells.\n(§3) Whole-cell currents were measured with HEKA EPC-10 amplifiers using PatchMaster software. Bath solution for all experiments contained (in mM): NaCl 137, KCl 4, CaCl2 1.8, MgCl2 1, HEPES 10, D-Glucose 10, pH 7.4 with NaOH. Intracellular (pipette) solution contained (in mM): KCl 130, MgCl2 1, Mg-ATP 5, HEPES 10, EGTA 5, pH 7.2 with KOH. During experiments, cells and solutions were maintained at room temperature (19° C.-30° C.). For manual patchclamp recordings, cell culture dishes were placed on the dish holder of the microscope and continuously perfused (1 ml/min) with bath solution. After formation of a Gigaohm seal between the patch electrode and the cell (pipette resistance range: 2.5 MΩ-6.0MΩ; seal resistance range: >1 GΩ) the cell membrane across the pipette tip was ruptured to assure electrical access to the cell interior (whole-cell patch configuration).\n(§4) Cells were voltage-clamped at a holding potential of −80 mV. GABAA receptors were activated by 2 μM GABA and compounds were sequentially applied at increasing concentrations for 30 s prior to a 2 s application of GABA. GABA and compounds were applied to cells via the Dynaflow perfusion system (Cellectricon, Sweden). Test compounds were dissolved in DMSO to form 10 mM stock solution and serially diluted to 0.01, 0.1, 1, and 10 μM in bath solution. […] All concentrations of test compound were tested on each cell. The relative percentage potentiation was defined as the peak amplitude in response to GABA EC20 in the presence of test compound divided by the peak amplitude in response to GABA EC20 alone, multiplied by 100.\n(§5) ALLO and ganaxolone are known PAMs of both synaptic and extrasynaptic GABAAR-mediated currents. […] The α1β2γ2 or α4β3δ subunit combinations were chosen as representatives of typical synaptic and extrasynaptic GABAA receptors respectively."}, "α4β3δ GABAA receptors": {"target": "T2, α4β3δ GABAA receptors (Homo sapiens, UniProt O14764+P28472+P48169)", "T2 construct": "expressed in transfected cells; host or cells: CHO cells (transient transfection, Lipofectamine)", "T2 sequence (P48169 36-554)": "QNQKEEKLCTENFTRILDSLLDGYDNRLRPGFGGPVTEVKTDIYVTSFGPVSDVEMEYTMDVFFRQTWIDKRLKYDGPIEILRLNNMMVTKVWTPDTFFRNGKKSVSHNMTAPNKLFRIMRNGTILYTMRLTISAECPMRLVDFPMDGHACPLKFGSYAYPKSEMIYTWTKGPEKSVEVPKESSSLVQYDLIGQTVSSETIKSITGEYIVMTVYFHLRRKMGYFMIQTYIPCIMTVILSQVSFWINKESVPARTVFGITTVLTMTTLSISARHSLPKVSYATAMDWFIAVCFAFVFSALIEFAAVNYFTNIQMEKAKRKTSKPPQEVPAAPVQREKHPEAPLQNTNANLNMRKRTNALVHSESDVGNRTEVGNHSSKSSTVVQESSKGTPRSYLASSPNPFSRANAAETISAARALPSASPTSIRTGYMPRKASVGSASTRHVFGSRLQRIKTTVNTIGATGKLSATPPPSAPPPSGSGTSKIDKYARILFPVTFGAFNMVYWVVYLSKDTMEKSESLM", "T2 sequence (P28472 26-473)": "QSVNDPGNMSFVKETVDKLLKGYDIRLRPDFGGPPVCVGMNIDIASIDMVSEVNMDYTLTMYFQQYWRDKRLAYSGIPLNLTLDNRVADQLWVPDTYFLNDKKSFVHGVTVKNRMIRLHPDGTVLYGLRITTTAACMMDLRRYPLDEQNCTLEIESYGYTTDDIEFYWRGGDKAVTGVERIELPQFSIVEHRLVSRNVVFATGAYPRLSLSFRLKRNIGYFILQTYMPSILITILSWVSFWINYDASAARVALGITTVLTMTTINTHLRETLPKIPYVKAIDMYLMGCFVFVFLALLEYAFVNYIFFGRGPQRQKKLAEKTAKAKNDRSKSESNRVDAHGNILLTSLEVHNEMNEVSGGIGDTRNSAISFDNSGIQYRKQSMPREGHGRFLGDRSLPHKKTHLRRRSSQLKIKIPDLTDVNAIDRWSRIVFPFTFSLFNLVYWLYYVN", "T2 sequence (O14764 25-452)": "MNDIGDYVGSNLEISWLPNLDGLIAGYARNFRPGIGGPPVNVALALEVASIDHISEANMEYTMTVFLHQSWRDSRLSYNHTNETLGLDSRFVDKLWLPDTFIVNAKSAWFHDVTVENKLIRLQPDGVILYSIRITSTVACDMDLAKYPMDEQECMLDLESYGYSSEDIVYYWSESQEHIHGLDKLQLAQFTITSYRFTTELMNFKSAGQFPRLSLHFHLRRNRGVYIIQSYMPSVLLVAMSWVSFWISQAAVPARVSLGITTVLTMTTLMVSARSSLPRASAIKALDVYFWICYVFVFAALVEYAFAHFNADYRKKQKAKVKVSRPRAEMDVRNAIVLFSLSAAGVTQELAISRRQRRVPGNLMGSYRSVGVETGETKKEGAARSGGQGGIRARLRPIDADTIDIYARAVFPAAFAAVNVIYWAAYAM", "assay": "Whole-cell patch clamp, potentiation of GABA EC20 currents at recombinant extrasynaptic-type receptors (CHO cells)", "type": "cell-based", "conditions": "data not shown", "description": "as §1, §2, §3, §4, §5"}},
  "data": [
    {"smiles": "C[C@@]1(O)CC[C@H]2[C@H](CC[C@@H]3[C@@H]2CC[C@]2(C)[C@@H](C(=O)Cn4cc(C#N)cn4)CC[C@@H]32)C1", "note": "[SAGE-217]", "values": [
      {"measurement": "modulation of GABA receptor trafficking", "setting": "[1]", "result": "modulated GABA receptor trafficking"}
    ]},
    {"smiles": "C[C@]12CC[C@@H](O)C[C@H]1CC[C@@H]1[C@@H]2CC[C@]2(C)[C@@H](C(=O)CO)CC[C@@H]12", "note": "[THDOC, Tetrahydrodeoxy- corticosterone]", "values": [
      {"measurement": "sustained effects on GABAergic tonic current", "setting": "[2]", "result": "long lasting increase"}
    ]},
    {"smiles": "CN1C(=O)CN=C(c2ccccc2)c2cc(Cl)ccc21", "note": "[diazepam]", "values": [
      {"measurement": "Emax", "setting": "α1β2γ2 GABAA receptors", "result": 184, "unit": "%"},
      {"measurement": "effect on GABA evoked currents in α4β3δ receptors", "setting": "α4β3δ GABAA receptors", "result": "did not alter"}
    ]}
  ]
}
